Data taken from patent US12303845B2, “Method for crystallization of active pharmaceutical ingredients” (Nanoform Finland Oyj, priority 2023, dated 2025).

Assays:
Format in all cases: physicochemical
[1] = Crystallization of amorphous nanosized API in aqueous polymer solution, polymorph/crystallinity by XRD; design: key to Polymorph: bulk = same as the API before conversion to amorphous nanoparticles
Method: XRPD measurements were carried out using the Malvern PANalytical Empyrean X-ray diffractometer equipped with a Cu Kα (1.54 Å) source, MultiCore optics and a solid-state PIXcel3D detector. By using Kapton tape the samples were attached onto aluminum or polycrystalline silicon sample holders. Dried slurries were measured without further sample preparation under Kapton tape and suspensions were filtered, dried, and filters were attached with double sided tape. The samples were measured in the reflection geometry in a spinning measurement stage. The measurement range was 5-40 (°2θ). The step size and time per step values were varied depending on the counts per second obtained.
Determination of crystallization of API nanoparticles was evaluated via kinetic study of suspension. Accordingly, XRD measurement was done for suspension in different time points.
Amorphous API nanoparticles (budesonide, ezetimibe, ceritinib, and apalutamide) were added as dry powders to aqueous polymer solutions. The mixtures were either • (i) mixed with a magnetic stirrer and ultrasonicated until API was completely surrounded by water (wetted). The stirring was continued for 16-24 h at ambient temperature or • (ii) blended with a metal spatula and allowed to stay at room temperature for 18-24 h.
The suspensions formed were analyzed after 18-24 h. SEM and XRD samples were prepared as described above.

[2] = SEM of crystallized suspensions and dried products (crystal size grade, particle size); design: key: 5 = nanocrystals; 1 = large crystals
Method: SEM images were captured using the Zeiss Sigma 300 VP SEM instruments. Samples were dispersed into water and filtered with 0.1 μm filter. Filters were dried, transferred to SEM sample holders, and coated with a 5 nm thick layer of platinum. Amorphous API nanoparticles (budesonide, ezetimibe, ceritinib, and apalutamide) were added as dry powders to aqueous polymer solutions. The mixtures were either • (i) mixed with a magnetic stirrer and ultrasonicated until API was completely surrounded by water (wetted). The stirring was continued for 16-24 h at ambient temperature or • (ii) blended with a metal spatula and allowed to stay at room temperature for 18-24 h. The suspensions formed were analyzed after 18-24 h. SEM and XRD samples were prepared as described above. Suspension comprising nanosized APIs prepared as shown above were dried in a vacuum desiccator overnight. The solid materials were grounded to produce powders. The powders were analyzed on XRD and SEM. The powders comprising nanosized APIs were used in the stability, permeability, and dissolution tests as described above.

[3] = Stability tests of solid material (SEM, XRD, HPLC); conditions: materials prepared according to the disclosure; up to T30; crystallinity confirmed by XRD
Method: Solid material was weighted in separate vials (approx. 150 mg of material in each) and transferred to stability chambers. Three conditions were applied: ambient conditions (material in closed vial at RT), 25° C./65% RH and 40° C./75% RH. Material was analyzed at T0 as freshly prepared, T7 ([…]), T14 ([…]) and T30 (30 d) after the initiation of stability studies. SEM, XRD and dissolution/permeability studies were used to evaluate the crystallinity, particle size/morphology and performance of the material.

[4] = Dissolution studies (Pion Rainbow, FaSSIF / SGF-FaSSIF); conditions: composition of the disclosure vs bulk ezetimibe; powders resuspended in aq. 1% PVPVA; FaSSIF and SGF-FaSSIF
Method: The dissolution properties were measured with a Pion Rainbow R2D instrument (Pion Inc UK Ltd, Forest Row, UK). The suspensions were prepared at concentration of 5 mg/mL in 1% PVPVA suspension vehicle loaded at 40 μg/mL (ezetimibe) or 30 μg/ml (apalutamide). Fasted simulated intestinal fluid (FaSSIF) media pH 6.5 was used for dissolution studies of Ezetimibe. Dissolution studies for Apalutamide was done in biphasic mode starting in Simulated gastric media (SGF) (0.025 M HCl pH 1.6) for 15 min. Thereafter, the content of the SGF was converted to FaSSIF medium pH 6.5 by addition of 10 mL of FaSSIF concentrate media. The temperature was set to 37° C. and stirring rate to 150 rpm. API concentrations were continuously monitored with a fiber optical UV-Vis probes path length. UV-Vis spectra were collected in 30-sec intervals using the Pion Rainbow Dynamic with either 10 mm tips for Ezetimibe or 5 mm tips for Apalutamide. The API concentration was calculated based on a standard curve using 2nd derivative data transformation (stock solution 5 mg/mL in ethanol of respective API) at a range of 293-320 nm wavelength for both Ezetimibe and Apalutamide).

[5] = HPMC 1 wt.-%, SLS 0.2 wt.-%, mAPI 25 mg/g
[6] = HPMC 1 wt.-%, no SLS, mAPI 25 mg/g
[7] = HPMC 2.5 wt.-%, SLS 0.2 wt.-%, mAPI 25 mg/g
[8] = HPMC 2.5 wt.-%, no SLS, mAPI 25 mg/g
[9] = HPMC 5 wt.-%, SLS 0.2 wt.-%, mAPI 25 mg/g
[10] = HPMC 5 wt.-%, no SLS, mAPI 25 mg/g
[11] = PVP K30 1 wt.-%, no SLS, mAPI 25 mg/g
[12] = PVP K30 2.5 wt.-%, no SLS, mAPI 25 mg/g
[13] = PVP K30 5 wt.-%, no SLS, mAPI 25 mg/g
[14] = PVPVA 1 wt.-%, SLS 0.2 wt.-%, mAPI 25 mg/g
[15] = PVPVA 1 wt.-%, no SLS, mAPI 25 mg/g polymer solution
[16] = PVPVA 2.5 wt.-%, SLS 0.2 wt.-%, mAPI 25 mg/g
[17] = PVPVA 2.5 wt.-%, no SLS, mAPI 25 mg/g
[18] = PVPVA 5 wt.-%, SLS 0.2 wt.-%, mAPI 25 mg/g
[19] = PVPVA 5 wt.-%, no SLS, mAPI 25 mg/g
[20] = PVPVA 15 wt.-%, no SLS, mAPI 150 mg/g
[21] = PVPVA 15 wt.-%, no SLS, mAPI 300 mg/g
[22] = PVPVA 20 wt.-%, no SLS, mAPI 100 mg/g
[23] = PVPVA 20 wt.-%, no SLS, mAPI 200 mg/g
[24] = PVPVA 20 wt.-%, no SLS, mAPI 400 mg/g
[25] = PVPVA 25 wt.-%, no SLS, mAPI 125 mg/g
[26] = PVPVA 25 wt.-%, no SLS, mAPI 250 mg/g
[27] = Poloxamer 407 1 wt.-%, no SLS, mAPI 25 mg/g
[28] = Poloxamer 407 2.5 wt.-%, no SLS, mAPI 25 mg/g
[29] = Poloxamer 407 5 wt.-%, no SLS, mAPI 25 mg/g

## O=C1[C@H](CC[C@H](O)c2ccc(F)cc2)[C@@H](c2ccc(O)cc2)N1c1ccc(F)cc1 [Eze, ezetimibe]
[1]; [5]
  Polymorph: bulk
[1]; [6]
  Polymorph: hydrate
[1]; [7]
  Polymorph: amorphous
[1]; [8]
  Polymorph: hydrate
[1]; [9]
  Polymorph: amorphous
[1]; [10]
  Polymorph: hydrate
[1]; [11]
  Polymorph: bulk
[1]; [12]
  Polymorph: bulk
[1]; [13]
  Polymorph: bulk
[1]; [14]
  Polymorph: bulk
[1]; [15]
  Polymorph: bulk
[1]; [16]
  Polymorph: bulk
[1]; [17]
  Polymorph: bulk
[1]; [18]
  Polymorph: hydrate
[1]; [19]
  Polymorph: bulk
[1]; [20]
  Polymorph: hydrate
[1]; [21]
  Polymorph: hydrate
[1]; [22]
  Polymorph: hydrate
[1]; [23]
  Polymorph: hydrate
[1]; [24]
  Polymorph: hydrate
[1]; [25]
  Polymorph: hydrate
[1]; [26]
  Polymorph: hydrate
[1]; [27]
  Polymorph: bulk
[1]; [28]
  Polymorph: bulk
[1]; [29]
  Polymorph: bulk
[1]; suspension in 20 wt.-% aq. PVPVA, API:polymer ratio 1:1
  time from contacting until crystal formation is observed in XRD diffractograms: > 9 h
[2]; [5]
  Grade (SEM, visual inspection): 2
[2]; [6]
  Grade (SEM, visual inspection): 2
[2]; [7]
  Grade (SEM, visual inspection): 2
[2]; [8]
  Grade (SEM, visual inspection): 2
[2]; [9]
  Grade (SEM, visual inspection): 2
[2]; [10]
  Grade (SEM, visual inspection): 2
[2]; [11]
  Grade (SEM, visual inspection): 3
[2]; [12]
  Grade (SEM, visual inspection): 3
[2]; [13]
  Grade (SEM, visual inspection): 3
[2]; [14]
  Grade (SEM, visual inspection): 2
[2]; [15]
  Grade (SEM, visual inspection): 3
[2]; [16]
  Grade (SEM, visual inspection): 4
[2]; [17]
  Grade (SEM, visual inspection): 2
[2]; [18]
  Grade (SEM, visual inspection): 5
[2]; [19]
  Grade (SEM, visual inspection): 2
[2]; [20]
  Grade (SEM, visual inspection): 5
[2]; [21]
  Grade (SEM, visual inspection): 5
[2]; [22]
  Grade (SEM, visual inspection): 5
[2]; [23]
  Grade (SEM, visual inspection): 5
[2]; [24]
  Grade (SEM, visual inspection): 5
[2]; [25]
  Grade (SEM, visual inspection): 5
[2]; [26]
  Grade (SEM, visual inspection): 5
[2]; [27]
  Grade (SEM, visual inspection): 1
[2]; [28]
  Grade (SEM, visual inspection): 1
[2]; [29]
  Grade (SEM, visual inspection): 1
[3]
  Stability of nanocrystalline material over the stability study: stable over the whole stability study
[4]
  dissolution versus bulk material: dissolves significantly faster
